We go through 5 compounds from ChEMBL document CHEMBL3108684, “Discovery and development of potent and selective inhibitors of histone methyltransferase g9a” (ACS Med Chem Lett, 2014).

For experiment [1], the target named is T1, Histone-lysine N-methyltransferase EHMT2 (Homo sapiens, UniProt Q96KQ7).
T1 sequence (Q96KQ7 whole entry): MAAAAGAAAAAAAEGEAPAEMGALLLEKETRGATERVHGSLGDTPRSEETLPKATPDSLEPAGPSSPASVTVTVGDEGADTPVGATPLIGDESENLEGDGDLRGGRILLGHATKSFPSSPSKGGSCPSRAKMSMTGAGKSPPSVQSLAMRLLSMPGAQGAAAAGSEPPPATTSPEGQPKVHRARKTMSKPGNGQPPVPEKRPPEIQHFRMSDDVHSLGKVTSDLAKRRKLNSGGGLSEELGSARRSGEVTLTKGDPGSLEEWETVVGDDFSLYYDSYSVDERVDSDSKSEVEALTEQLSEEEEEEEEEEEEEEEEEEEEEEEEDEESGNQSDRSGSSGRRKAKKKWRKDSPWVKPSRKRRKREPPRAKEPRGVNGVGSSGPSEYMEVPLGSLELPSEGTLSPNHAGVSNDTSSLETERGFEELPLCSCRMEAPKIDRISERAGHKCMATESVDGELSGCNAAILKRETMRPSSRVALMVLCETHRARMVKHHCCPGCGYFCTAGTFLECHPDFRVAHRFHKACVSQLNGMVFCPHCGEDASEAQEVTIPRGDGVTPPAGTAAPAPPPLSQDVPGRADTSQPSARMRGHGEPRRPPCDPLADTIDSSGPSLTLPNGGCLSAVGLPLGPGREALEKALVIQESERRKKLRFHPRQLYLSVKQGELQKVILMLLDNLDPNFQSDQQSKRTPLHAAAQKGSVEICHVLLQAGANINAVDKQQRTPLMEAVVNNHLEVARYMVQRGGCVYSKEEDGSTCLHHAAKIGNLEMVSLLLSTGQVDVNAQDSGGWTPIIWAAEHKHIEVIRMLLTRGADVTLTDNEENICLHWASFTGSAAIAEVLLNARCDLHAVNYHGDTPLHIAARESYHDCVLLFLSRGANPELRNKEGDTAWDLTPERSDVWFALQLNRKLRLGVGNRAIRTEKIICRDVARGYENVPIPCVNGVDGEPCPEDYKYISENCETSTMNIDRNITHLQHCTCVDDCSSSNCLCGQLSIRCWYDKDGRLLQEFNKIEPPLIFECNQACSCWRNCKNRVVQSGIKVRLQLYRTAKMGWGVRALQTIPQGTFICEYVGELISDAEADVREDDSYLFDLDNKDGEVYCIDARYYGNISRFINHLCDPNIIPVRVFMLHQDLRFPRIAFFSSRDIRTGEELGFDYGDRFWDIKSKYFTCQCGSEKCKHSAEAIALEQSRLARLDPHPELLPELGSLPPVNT
Nature of the experiment: Inhibition of G9a (unknown origin) using biotinylated-histone H3(1-21) peptide as substrate after 3 hrs by AlphaLISA assay. (In general: In Alpha technology, singlet oxygen from a donor bead excites a nearby acceptor bead.)

Experiment [2] has as its system PC-3. Nature of the experiment: Effect on total H3K36Me2 protein level in human PC3 cells at 0.01 to 10 uM after 72 hrs by Western blotting analysis. The format is functional, cell-based. (In general: A western blot detects proteins with antibodies after separation by electrophoresis.)
Experiment [3] has as its system PC-3. In words: Effect on total H3K27Me3 protein level in human PC3 cells at 0.01 to 10 uM after 72 hrs by Western blotting analysis. The experiment is classed as functional, cell-based.
The subject of experiment [4] is PC-3. Nature of the experiment: Effect on total histone 3 protein level in human PC3 cells at 0.01 to 10 uM after 72 hrs by Western blotting analysis. The format is functional, cell-based.
Experiment [5] addresses Histone-lysine N-methyltransferase EHMT2 (Homo sapiens) (UniProt Q96KQ7). The conditions noted are these: PC-3, 3 uM.
Description: Inhibition of G9a in human PC3 cells assessed as reduction in H3K9Me2 level at 3 uM after 72 hrs by Western blotting analysis relative to control
The target in experiment [6] is Histone-lysine N-methyltransferase EHMT1 (Homo sapiens, UniProt Q9H9B1). In words: Inhibition of GLP (unknown origin)-mediated incorporation of methyl group from [3H]-SAM into peptide substrate by scintillation proximity assay. A general note: Scintillation proximity formats need no separation of bound from free tracer.
The target of experiment [7] is Histone-lysine N-methyltransferase NSD2 (Homo sapiens) (UniProt O96028). Nature of the experiment: Inhibition of WHSC1 (unknown origin)-mediated incorporation of methyl group from [3H]-SAM into peptide substrate up to 50 uM after 1 hr by scintillation proximity assay.
Chain of Histone-lysine N-methyltransferase NSD2 (Homo sapiens) (O96028 whole entry): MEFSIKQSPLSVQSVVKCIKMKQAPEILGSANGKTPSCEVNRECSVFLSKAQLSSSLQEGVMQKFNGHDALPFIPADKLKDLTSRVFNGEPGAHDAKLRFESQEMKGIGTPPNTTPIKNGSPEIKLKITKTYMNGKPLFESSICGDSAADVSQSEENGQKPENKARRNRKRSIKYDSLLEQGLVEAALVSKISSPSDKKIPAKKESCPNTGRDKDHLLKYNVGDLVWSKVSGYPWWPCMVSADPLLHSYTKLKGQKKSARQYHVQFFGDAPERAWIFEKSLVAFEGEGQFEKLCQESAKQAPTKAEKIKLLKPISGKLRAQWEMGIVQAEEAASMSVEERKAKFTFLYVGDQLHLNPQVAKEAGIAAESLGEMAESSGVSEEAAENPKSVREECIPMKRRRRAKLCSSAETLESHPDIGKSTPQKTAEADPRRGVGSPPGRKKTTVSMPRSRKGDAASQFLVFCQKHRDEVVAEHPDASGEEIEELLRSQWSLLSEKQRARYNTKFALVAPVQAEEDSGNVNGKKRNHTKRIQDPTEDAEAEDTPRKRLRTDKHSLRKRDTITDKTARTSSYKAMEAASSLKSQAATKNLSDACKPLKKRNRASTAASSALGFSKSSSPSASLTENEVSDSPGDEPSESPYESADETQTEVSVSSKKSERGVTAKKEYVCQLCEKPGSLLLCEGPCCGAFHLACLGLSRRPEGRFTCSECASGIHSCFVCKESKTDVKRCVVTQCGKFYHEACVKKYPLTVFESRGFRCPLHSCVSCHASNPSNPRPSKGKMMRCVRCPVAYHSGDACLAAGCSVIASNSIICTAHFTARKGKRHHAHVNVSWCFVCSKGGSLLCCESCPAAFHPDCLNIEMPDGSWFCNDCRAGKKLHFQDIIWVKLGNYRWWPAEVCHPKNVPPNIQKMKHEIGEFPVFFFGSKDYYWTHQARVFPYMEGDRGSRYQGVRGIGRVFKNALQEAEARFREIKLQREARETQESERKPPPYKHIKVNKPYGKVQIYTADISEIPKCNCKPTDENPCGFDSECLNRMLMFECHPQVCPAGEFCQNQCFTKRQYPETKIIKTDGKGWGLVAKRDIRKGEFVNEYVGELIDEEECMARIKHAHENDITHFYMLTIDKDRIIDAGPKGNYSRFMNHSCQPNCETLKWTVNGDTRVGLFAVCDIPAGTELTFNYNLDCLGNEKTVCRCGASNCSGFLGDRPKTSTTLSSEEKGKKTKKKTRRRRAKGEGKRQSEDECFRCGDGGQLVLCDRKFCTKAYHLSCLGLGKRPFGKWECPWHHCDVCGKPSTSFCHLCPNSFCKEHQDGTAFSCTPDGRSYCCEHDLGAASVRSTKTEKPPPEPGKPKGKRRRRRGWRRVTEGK
Experiment [8] has as its target Histone-lysine N-methyltransferase NSD3 (Homo sapiens) (UniProt Q9BZ95). In words: Inhibition of WHSC1L (unknown origin)-mediated incorporation of methyl group from [3H]-SAM into peptide substrate up to 50 uM after 1 hr by scintillation proximity assay.
For experiment [9], the target named is Histone-lysine N-methyltransferase, H3 lysine-79 specific (Homo sapiens) (UniProt Q8TEK3). In words: Inhibition of DOT1L (unknown origin)-mediated incorporation of methyl group from [3H]-SAM into peptide substrate up to 50 uM after 1 hr by scintillation proximity assay.
In experiment [10] the target is Histone-lysine N-methyltransferase SETD2 (Homo sapiens) (UniProt Q9BYW2). In words: Inhibition of SETD2 (unknown origin)-mediated incorporation of methyl group from [3H]-SAM into peptide substrate up to 50 uM by scintillation proximity assay.
The target in experiment [11] is N-lysine methyltransferase SMYD2 (Homo sapiens) (UniProt Q9NRG4). In words: Inhibition of SMYD2 (unknown origin)-mediated incorporation of methyl group from [3H]-SAM into peptide substrate up to 50 uM by scintillation proximity assay.
In experiment [12] the target is Histone-lysine N-methyltransferase KMT5C (Homo sapiens) (UniProt Q86Y97). In words: Inhibition of SUV420H2 (unknown origin)-mediated incorporation of methyl group from [3H]-SAM into peptide substrate up to 50 uM by scintillation proximity assay.
Experiment [13] deals with Histone-lysine N-methyltransferase KMT5B (Homo sapiens) (UniProt Q4FZB7). In words: Inhibition of SUV420H1 (unknown origin)-mediated incorporation of methyl group from [3H]-SAM into peptide substrate up to 50 uM by scintillation proximity assay.
Experiment [14] concerns the target DNA (cytosine-5)-methyltransferase 1 (Homo sapiens) (UniProt P26358). Nature of the experiment: Inhibition of DNMT1 (unknown origin)-mediated incorporation of methyl group from [3H]-SAM into dsDNA substrate up to 50 uM by scintillation proximity assay.
Experiment [15] has as its target Histone-lysine N-methyltransferase SMYD3 (Homo sapiens) (UniProt Q9H7B4). Nature of the experiment: Inhibition of SMYD3 (unknown origin)-mediated incorporation of methyl group from [3H]-SAM into peptide substrate up to 50 uM by scintillation proximity assay.
In experiment [16] the target is EZH2/SUZ12/EED complex (Homo sapiens) (UniProt Q15910+O75530+Q15022). In words: Inhibition of EZH2/SUZ12/EED complex (unknown origin)-mediated incorporation of methyl group from [3H]-SAM into peptide substrate up to 50 uM by scintillation proximity assay. The experiment is classed as protein-complex assay.
Chain of EZH2/SUZ12/EED complex (Homo sapiens) (O75530 2-441 partner limits assumed): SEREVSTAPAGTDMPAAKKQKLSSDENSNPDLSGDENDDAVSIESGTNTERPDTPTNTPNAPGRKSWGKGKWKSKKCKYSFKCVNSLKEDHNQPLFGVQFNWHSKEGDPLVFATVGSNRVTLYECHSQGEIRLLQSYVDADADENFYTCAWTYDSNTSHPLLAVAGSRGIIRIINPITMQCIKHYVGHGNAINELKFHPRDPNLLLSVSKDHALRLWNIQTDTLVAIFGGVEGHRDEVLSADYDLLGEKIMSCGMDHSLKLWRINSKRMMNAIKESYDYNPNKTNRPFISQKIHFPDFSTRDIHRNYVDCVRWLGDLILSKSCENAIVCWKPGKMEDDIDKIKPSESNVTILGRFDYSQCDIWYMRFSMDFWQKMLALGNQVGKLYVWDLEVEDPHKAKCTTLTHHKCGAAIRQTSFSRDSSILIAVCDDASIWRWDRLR
Chain of EZH2/SUZ12/EED complex (Homo sapiens) (Q15022 whole entry partner): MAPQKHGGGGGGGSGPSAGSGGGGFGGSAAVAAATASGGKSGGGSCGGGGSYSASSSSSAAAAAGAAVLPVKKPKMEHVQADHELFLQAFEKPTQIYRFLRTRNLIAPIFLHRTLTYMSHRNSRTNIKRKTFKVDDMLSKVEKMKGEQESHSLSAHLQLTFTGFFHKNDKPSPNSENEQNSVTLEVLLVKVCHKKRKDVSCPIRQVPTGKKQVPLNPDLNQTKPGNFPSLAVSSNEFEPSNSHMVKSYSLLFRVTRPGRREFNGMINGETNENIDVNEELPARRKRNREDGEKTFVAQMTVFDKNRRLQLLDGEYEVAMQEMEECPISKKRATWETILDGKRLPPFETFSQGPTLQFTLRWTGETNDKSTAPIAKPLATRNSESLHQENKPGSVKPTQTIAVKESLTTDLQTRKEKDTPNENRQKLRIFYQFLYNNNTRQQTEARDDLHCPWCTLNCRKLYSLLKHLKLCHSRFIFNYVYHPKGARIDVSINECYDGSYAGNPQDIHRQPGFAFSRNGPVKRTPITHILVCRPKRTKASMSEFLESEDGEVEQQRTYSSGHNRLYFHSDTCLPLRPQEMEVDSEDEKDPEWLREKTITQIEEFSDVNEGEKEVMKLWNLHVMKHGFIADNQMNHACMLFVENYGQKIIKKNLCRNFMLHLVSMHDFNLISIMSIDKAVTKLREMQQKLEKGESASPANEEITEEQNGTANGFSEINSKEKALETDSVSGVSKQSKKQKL
Chain of EZH2/SUZ12/EED complex (Homo sapiens) (Q15910 whole entry): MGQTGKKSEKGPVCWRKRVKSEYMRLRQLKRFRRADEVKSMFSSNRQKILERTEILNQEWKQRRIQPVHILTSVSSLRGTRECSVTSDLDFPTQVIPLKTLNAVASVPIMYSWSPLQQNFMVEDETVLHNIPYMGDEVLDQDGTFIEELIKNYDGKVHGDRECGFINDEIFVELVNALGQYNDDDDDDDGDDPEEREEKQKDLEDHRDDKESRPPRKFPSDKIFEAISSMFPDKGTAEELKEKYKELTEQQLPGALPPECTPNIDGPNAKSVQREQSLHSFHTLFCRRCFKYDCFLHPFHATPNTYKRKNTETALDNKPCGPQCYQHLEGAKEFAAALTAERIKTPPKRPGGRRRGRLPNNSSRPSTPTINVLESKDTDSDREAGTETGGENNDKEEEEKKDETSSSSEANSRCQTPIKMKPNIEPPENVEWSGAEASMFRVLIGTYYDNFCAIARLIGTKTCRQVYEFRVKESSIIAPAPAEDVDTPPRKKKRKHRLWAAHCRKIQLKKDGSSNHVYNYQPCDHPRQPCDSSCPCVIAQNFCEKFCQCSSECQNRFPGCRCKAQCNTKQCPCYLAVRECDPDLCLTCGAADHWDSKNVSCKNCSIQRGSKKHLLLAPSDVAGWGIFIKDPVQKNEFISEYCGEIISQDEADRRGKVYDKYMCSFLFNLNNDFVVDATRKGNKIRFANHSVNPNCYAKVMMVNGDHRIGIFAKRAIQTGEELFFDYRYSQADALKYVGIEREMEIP
The target in experiment [17] is EZH1/SUZ12/EED/AEBP2/RBBP4 complex (Homo sapiens) (UniProt Q92800+O75530+Q15022+Q6ZN18+Q09028). In words: Inhibition of EZH1/EED/SUZ12/AEBP2/RBBP4 complex (unknown origin)-mediated incorporation of methyl group from [3H]-SAM into peptide substrate up to 50 uM by scintillation proximity assay. The format is protein-complex assay.
Chain of EZH1/SUZ12/EED/AEBP2/RBBP4 complex (Homo sapiens) (O75530 2-441 partner limits assumed): as the sequence (O75530 2-441 partner limits assumed) above
Chain of EZH1/SUZ12/EED/AEBP2/RBBP4 complex (Homo sapiens) (Q09028 2-425 partner limits assumed): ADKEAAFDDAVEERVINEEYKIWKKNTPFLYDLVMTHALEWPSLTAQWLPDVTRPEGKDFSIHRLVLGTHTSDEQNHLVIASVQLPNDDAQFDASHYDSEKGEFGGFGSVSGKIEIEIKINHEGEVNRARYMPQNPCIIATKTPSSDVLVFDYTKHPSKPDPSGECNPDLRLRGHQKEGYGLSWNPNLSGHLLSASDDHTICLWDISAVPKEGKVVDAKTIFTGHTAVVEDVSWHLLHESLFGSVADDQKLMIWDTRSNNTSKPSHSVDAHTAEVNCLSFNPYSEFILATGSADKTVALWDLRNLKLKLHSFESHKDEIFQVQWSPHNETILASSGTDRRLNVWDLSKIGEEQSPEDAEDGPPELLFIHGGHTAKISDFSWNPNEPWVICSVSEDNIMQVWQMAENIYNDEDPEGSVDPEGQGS
Chain of EZH1/SUZ12/EED/AEBP2/RBBP4 complex (Homo sapiens) (Q15022 whole entry partner): as the sequence (Q15022 whole entry partner) above
Chain of EZH1/SUZ12/EED/AEBP2/RBBP4 complex (Homo sapiens) (Q6ZN18 2-517 partner limits assumed): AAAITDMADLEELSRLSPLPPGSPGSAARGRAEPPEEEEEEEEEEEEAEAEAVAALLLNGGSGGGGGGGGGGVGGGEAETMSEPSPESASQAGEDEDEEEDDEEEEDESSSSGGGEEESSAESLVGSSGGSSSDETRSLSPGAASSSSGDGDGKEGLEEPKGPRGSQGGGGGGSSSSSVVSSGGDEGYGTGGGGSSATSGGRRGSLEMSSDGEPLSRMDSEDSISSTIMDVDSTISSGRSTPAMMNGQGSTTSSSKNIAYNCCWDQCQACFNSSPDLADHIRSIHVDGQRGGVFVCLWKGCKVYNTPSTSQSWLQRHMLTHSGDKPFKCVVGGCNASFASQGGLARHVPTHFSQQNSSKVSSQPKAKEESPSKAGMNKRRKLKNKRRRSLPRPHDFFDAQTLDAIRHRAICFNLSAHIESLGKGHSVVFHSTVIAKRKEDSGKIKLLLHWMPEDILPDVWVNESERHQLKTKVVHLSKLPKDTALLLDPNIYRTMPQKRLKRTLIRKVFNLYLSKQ
Chain of EZH1/SUZ12/EED/AEBP2/RBBP4 complex (Homo sapiens) (Q92800 whole entry): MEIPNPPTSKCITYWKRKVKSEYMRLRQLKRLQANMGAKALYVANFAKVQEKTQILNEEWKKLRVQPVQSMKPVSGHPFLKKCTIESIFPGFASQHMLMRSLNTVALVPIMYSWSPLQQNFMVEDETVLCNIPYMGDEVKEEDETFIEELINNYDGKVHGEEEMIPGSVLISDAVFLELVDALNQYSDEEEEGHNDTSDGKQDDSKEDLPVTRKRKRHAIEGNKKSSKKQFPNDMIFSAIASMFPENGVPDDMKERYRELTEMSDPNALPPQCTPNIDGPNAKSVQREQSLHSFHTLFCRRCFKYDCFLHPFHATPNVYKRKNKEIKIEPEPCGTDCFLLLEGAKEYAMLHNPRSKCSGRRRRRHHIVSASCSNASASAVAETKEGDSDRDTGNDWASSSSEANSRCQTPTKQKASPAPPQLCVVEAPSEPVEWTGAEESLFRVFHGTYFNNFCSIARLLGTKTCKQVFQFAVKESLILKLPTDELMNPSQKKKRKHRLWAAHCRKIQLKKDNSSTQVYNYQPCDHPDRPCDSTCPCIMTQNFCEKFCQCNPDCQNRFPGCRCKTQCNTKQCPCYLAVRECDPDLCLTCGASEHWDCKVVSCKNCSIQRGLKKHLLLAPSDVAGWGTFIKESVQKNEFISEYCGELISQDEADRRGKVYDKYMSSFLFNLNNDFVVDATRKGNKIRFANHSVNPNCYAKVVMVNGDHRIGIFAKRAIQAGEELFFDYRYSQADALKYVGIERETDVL
In experiment [18] the target is N-lysine methyltransferase KMT5A (Homo sapiens) (UniProt Q9NQR1). In words: Inhibition of SETD8 (unknown origin)-mediated incorporation of methyl group from [3H]-SAM into peptide substrate up to 50 uM by scintillation proximity assay.
The target in experiment [19] is Protein arginine N-methyltransferase 8 (Homo sapiens) (UniProt Q9NR22). Nature of the experiment: Inhibition of PRMT8 (unknown origin)-mediated incorporation of methyl group from [3H]-SAM into peptide substrate up to 50 uM by scintillation proximity assay.
In experiment [20] the target is Protein arginine N-methyltransferase 6 (Homo sapiens) (UniProt Q96LA8). In words: Inhibition of PRMT6 (unknown origin)-mediated incorporation of methyl group from [3H]-SAM into peptide substrate up to 50 uM by scintillation proximity assay.
Experiment [21] deals with PRMT5/MEP50 complex (Homo sapiens) (UniProt O14744+Q9BQA1). In words: Inhibition of PRMT5/MEP50 complex (unknown origin)-mediated incorporation of methyl group from [3H]-SAM into peptide substrate up to 50 uM by scintillation proximity assay. The experiment is classed as protein-complex assay.
Experiment [22] has as its target Protein arginine N-methyltransferase 3 (Homo sapiens) (UniProt O60678). In words: Inhibition of PRMT3 (unknown origin)-mediated incorporation of methyl group from [3H]-SAM into peptide substrate up to 50 uM by scintillation proximity assay.
In experiment [23] the target is Protein arginine N-methyltransferase 1 (Homo sapiens) (UniProt Q99873). In words: Inhibition of PRMT1 (unknown origin)-mediated incorporation of methyl group from [3H]-SAM into peptide substrate up to 50 uM by scintillation proximity assay.
Experiment [24] addresses Histone-lysine N-methyltransferase SETD7 (Homo sapiens) (UniProt Q8WTS6). In words: Inhibition of SETD7 (unknown origin)-mediated incorporation of methyl group from [3H]-SAM into peptide substrate up to 50 uM by scintillation proximity assay.
The target in experiment [25] is MLL1/ASH2L/RBBP5/WDR5 complex (Homo sapiens) (UniProt P61964+Q03164+Q9UBL3+Q15291). Nature of the experiment: Inhibition of MLL1/ASH2L/RBBP5/WDR5 complex (unknown origin)-mediated incorporation of methyl group from [3H]-SAM into peptide substrate up to 50 uM by scintillation proximity assay. The experiment is classed as protein-complex assay.
Experiment [26] addresses Histone-lysine N-methyltransferase SETDB1 (Homo sapiens) (UniProt Q15047). In words: Inhibition of SETDB1 (unknown origin)-mediated incorporation of methyl group from [3H]-SAM into peptide substrate up to 50 uM by scintillation proximity assay.
Experiment [27] has as its target Histone-lysine N-methyltransferase SUV39H2 (Homo sapiens) (UniProt Q9H5I1). In words: Inhibition of SUV39H2 (unknown origin)-mediated incorporation of methyl group from [3H]-SAM into peptide substrate up to 50 uM by scintillation proximity assay.

Broadly, the IC50 is the concentration at which inhibition is half-maximal. Usually inhibition stands for the relative decrease from the control value, in per cent.

The source made the active and inactive calls. The calls are words filed in the database; no cut-off is given here.

For `COc1cc2c(cc1OCCCN1CC[C@H](F)C1)N=C(N)C21CCC1`, in experiment [1], the IC50 is 18 nM.
For the compound `COc1cc2cc(N)[nH]c2cc1OC`, in [1], the 50% inhibitory concentration (IC50) was determined as 14400 nM.
Compound `COc1cc2c(cc1OCCCN1CC[C@@H](F)C1)N=C(N)C21CCC1` displayed an IC50 in [1] of 3.7 nM.
For `COc1cc2c(NC3CCN(C(C)C)CC3)nc(C3CCCCC3)nc2cc1OCCCN1CCCC1`, the result in experiment [2], in experiment [3] and in experiment [4] was inactive. The compound also showed an inhibition in [5] of 50%.
As for `COc1cc2c(cc1OCCCN1CCCC1)N=C(N)C21CCC1`, the outcome in [2], in [3] and in [4] was inactive. In addition, the concentration for half-maximal inhibition (IC50) in experiment [6] is 38 nM. For the same compound, the inhibition entry in experiment [7], in experiment [8], in experiment [9], in [10], in experiment [11] and in experiment [12] was “inactive” throughout. The inhibition result in [13], in experiment [14], in [15], in experiment [16], in [17] and in experiment [18] was “inactive” in each case. Further, the inhibition entry in experiment [19], in experiment [20], in [21], in experiment [22], in experiment [23] and in experiment [24] was “inactive” throughout. For the same compound, the inhibition entry in experiment [25], in [26] and in [27] was “inactive” in each case. In experiment [5], the inhibition came out at 50%.
